Measurements: PubChem BioAssay AID1963827 (Molecular Pharmacology Branch, DTP, NCI, 2024)

System: 994946-033-R-J1-PDC complex spheroid viability
Test: Anticancer human tumor 994946-033-R-J1-PDC patient-derived melanoma cell line growth inhibition [POLQ]
Conditions: for IC50: curve of first compound; for viability, T/C: stronger effect = lower value
Outline: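 Growth inhibition in 3D: complex spheroids (tumor PDC, HUVEC, MSC) treated with POLQ inhibitor combinations; where Cmax unknown, highest tested concentration 10 microM, except SN-38 at 1 microM.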

[1] = second compound 0.0316 µM, first compound 0.0316 µM
[2] = second compound 0.0316 µM, first compound 0.1 µM
[3] = second compound 0.0316 µM, first compound 0.316 µM
[4] = second compound 0.0316 µM, first compound 1 µM
[5] = second compound 0.0316 µM, first compound 3.16 µM
[6] = second compound 0.0316 µM, first compound 10 µM
[7] = second compound 0.1 µM, first compound 0.0316 µM
[8] = second compound 0.1 µM, first compound 0.1 µM
[9] = second compound 0.1 µM, first compound 0.316 µM
[10] = second compound 0.1 µM, first compound 1 µM
[11] = second compound 0.1 µM, first compound 3.16 µM
[12] = second compound 0.1 µM, first compound 10 µM
[13] = second compound 0.316 µM, first compound 0.0316 µM
[14] = second compound 0.316 µM, first compound 0.1 µM
[15] = second compound 0.316 µM, first compound 0.316 µM
[16] = second compound 0.316 µM, first compound 1 µM
[17] = second compound 0.316 µM, first compound 3.16 µM
[18] = second compound 0.316 µM, first compound 10 µM
[19] = second compound 1 µM, first compound 0.0316 µM
[20] = second compound 1 µM, first compound 0.1 µM
[21] = second compound 1 µM, first compound 0.316 µM
[22] = second compound 1 µM, first compound 1 µM
[23] = second compound 1 µM, first compound 3.16 µM
[24] = second compound 1 µM, first compound 10 µM
[25] = second compound 3.16 µM, first compound 0.0316 µM
[26] = second compound 3.16 µM, first compound 0.1 µM
[27] = second compound 3.16 µM, first compound 0.316 µM
[28] = second compound 3.16 µM, first compound 1 µM
[29] = second compound 3.16 µM, first compound 3.16 µM
[30] = second compound 3.16 µM, first compound 10 µM
[31] = second compound 10 µM, first compound 0.0316 µM
[32] = second compound 10 µM, first compound 0.1 µM
[33] = second compound 10 µM, first compound 0.316 µM
[34] = second compound 10 µM, first compound 1 µM
[35] = second compound 10 µM, first compound 3.16 µM
[36] = second compound 10 µM, first compound 10 µM
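Also: spheroids exposed to drugs for 7 days.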
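For viability, T/C in this document: 100% = DMSO vehicle treated spheroids.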

COc1ccc([C@@H](O)c2cc(-c3ncnc4cc(N5CCOCC5)ccc34)c(F)cc2Cl)nn1 + COC1C(OC(N)=O)C(O)C(Oc2ccc3c(O)c(NC(=O)c4ccc(O)c(CC=C(C)C)c4)c(=O)oc3c2C)OC1(C)C showed an IC50 (second compound 0.0316 µM) of 4.18 µM, an IC50 (second compound 0.1 µM) of 2.2 µM and an IC50 (second compound 0.316 µM) of 4.88 µM. For the same compound, the IC50 (second compound 1 µM) was 6.13 µM, the IC50 (second compound 3.16 µM) was 7.07 µM and the IC50 (second compound 10 µM) was 9.07 µM. It also gave a viability, T/C [1] of 101%, a viability, T/C [2] of 83% and a viability, T/C [3] of 83.5%. The viability, T/C [4] was 78.8%, the viability, T/C [5] was 49.4% and the viability, T/C [6] was 36.5%. It also gave a viability, T/C [7] of 107%, a viability, T/C [8] of 74.5% and a viability, T/C [9] of 93%. The viability, T/C [10] was 73.5%, the viability, T/C [11] was 36.7% and the viability, T/C [12] was 41.8%. It also gave a viability, T/C [13] of 93.3%, a viability, T/C [14] of 107% and a viability, T/C [15] of 85.8%. The viability, T/C [16] was 64%, the viability, T/C [17] was 62.3% and the viability, T/C [18] was 39.6%. The viability, T/C [19] was 128%, the viability, T/C [20] was 90.6% and the viability, T/C [21] was 70.6%. The viability, T/C [22] was 68.7%, the viability, T/C [23] was 76% and the viability, T/C [24] was 39.5%. It also gave a viability, T/C [25] of 91.7%, a viability, T/C [26] of 88.7% and a viability, T/C [27] of 96.1%. It also gave a viability, T/C [28] of 70.5%, a viability, T/C [29] of 62.6% and a viability, T/C [30] of 44.9%. It also gave a viability, T/C [31] of 103%, a viability, T/C [32] of 90.4% and a viability, T/C [33] of 71.9%. The viability, T/C [34] was 65.5%, the viability, T/C [35] was 60% and the viability, T/C [36] was 47.4%.

C#Cc1c(F)ccc2cc(O)cc(-c3ncc4c(N5CC6CCC(C5)N6)nc(OCC56CCCN5CC(F)C6)nc4c3F)c12 (centres undefined) + Nc1ccc(C#CCN(C(=O)Cc2ncc(C(F)(F)F)cc2C(F)(F)F)c2ccc(F)cc2)nn1 was tested, and the IC50 (second compound 0.0316 µM) was 4.28 µM, the IC50 (second compound 0.1 µM) was 5.46 µM and the IC50 (second compound 0.316 µM) was 5.99 µM. It also gave an IC50 (second compound 1 µM) of 3.66 µM, an IC50 (second compound 3.16 µM) of 5.38 µM and an IC50 (second compound 10 µM) of 5.09 µM. For the same compound, the viability, T/C [1] was 101%, the viability, T/C [2] was 109% and the viability, T/C [3] was 91.9%. The viability, T/C [4] was 82.5%, the viability, T/C [5] was 67.2% and the viability, T/C [6] was 11.7%. It also gave a viability, T/C [7] of 90.2%, a viability, T/C [8] of 88.9% and a viability, T/C [9] of 97.8%. The viability, T/C [10] was 74.1%, the viability, T/C [11] was 81% and the viability, T/C [12] was 19.1%. It also gave a viability, T/C [13] of 100%, a viability, T/C [14] of 84.7% and a viability, T/C [15] of 74.8%. For the same compound, the viability, T/C [16] was 96.2%, the viability, T/C [17] was 84.1% and the viability, T/C [18] was 22.3%. The viability, T/C [19] was 80.6%, the viability, T/C [20] was 89.8% and the viability, T/C [21] was 90.1%. It also gave a viability, T/C [22] of 66.5%, a viability, T/C [23] of 59.8% and a viability, T/C [24] of 5.38%. For the same compound, the viability, T/C [25] was 74.4%, the viability, T/C [26] was 85.1% and the viability, T/C [27] was 102%. For the same compound, the viability, T/C [28] was 79.1%, the viability, T/C [29] was 81.1% and the viability, T/C [30] was 13.7%. The viability, T/C [31] was 80%, the viability, T/C [32] was 106% and the viability, T/C [33] was 76.2%. The viability, T/C [34] was 112%, the viability, T/C [35] was 71% and the viability, T/C [36] was 20.3%.
